# Values of other authors as cited in US8470822B2, “Folate mimetics and folate-receptor binding conjugates thereof” (Purdue Research Foundation, priority 2001, dated 2013).
# Test system: high-affinity folate receptor
# Details: 2 μM pteroic acid (100-fold excess); cited from earlier work
smiles,measurement,value
Nc1nc2ncc(CNc3ccc(C(=O)O)cc3)nc2c(=O)[nH]1 [pteroic acid],effect on the binding of folate to the folate receptor,absolutely no effect
